According to patent US6881427B2, “Topical anti-inflammatory composition containing linseed and licorice extracts” (Alticor Inc., priority 2002, dated 2005):

How the values were obtained:
Assay type in all cases: cell-based, human
PGE2 = PGE2 secretion from TESTSKIN II tissue (competitive ELISA); conditions: after 24 hours of exposure
Procedure: The anti-inflammatory potential of a composition according to the present invention that includes a combination of linseed extract and licorice extract was evaluated as described herein. The release of PGE2 and GM-CSF from skin tissue provides a measure of protective potential following pre-incubation with test materials, whereas the reduction of MTT (3-[4,5-dimethylthiazol-2yl]-2,5-diphenyl-2H-tetrazolium bromide) provides an estimate of toxicity potential.
The skin tissue used in this study, TESTSKIN II (Organogenesis Inc., Canton, Mass.), is constructed from human skin with anatomical structures and physiological functions that simulate actual living skin. […]
The test materials were evaluated for exposure periods of 4, 8, and 24 hours, and their toxicity was evaluated for an exposure period of 24 hours. […]
Four controls are included: total activity, non-specific binding, maximum binding, and substrate blank. […] Following incubation, 50 μL of stop solution (trisodium phosphate solution) is added and the optical density is measured immediately at 405 nm (reference wavelength of 570-590 nm) using a microplate spectrophotometer. The amount of PGE2 present in the supernatant is determined by comparison to the calibration curve generated by the recombinant PGE2 standard. […]

TESTSKIN II = test: MTT reduction toxicity assay on TESTSKIN II skin tissue; conditions: MTT % survival, 24-hour exposure; PMA 10 ng/mL
Procedure: The release of PGE2 and GM-CSF from skin tissue provides a measure of protective potential following pre-incubation with test materials, whereas the reduction of MTT (3-[4,5-dimethylthiazol-2yl]-2,5-diphenyl-2H-tetrazolium bromide) provides an estimate of toxicity potential.
(§1) The skin tissue used in this study, TESTSKIN II (Organogenesis Inc., Canton, Mass.), is constructed from human skin with anatomical structures and physiological functions that simulate actual living skin. This tissue has an upper epidermal layer with well-differentiated keratinocytes and stratum corneum and a lower dermal layer with living fibroblasts able to produce collagen matrix.
(§2) The test materials were evaluated for exposure periods of 4, 8, and 24 hours, and their toxicity was evaluated for an exposure period of 24 hours. Test materials 2, 4, 6, and 8 were used neat. […] All dilutions were made in growth media, and assays were performed in triplicate.
All supplies and handling equipment are sterilized, and techniques for maintaining sterility are used. […]
Tissues free of test materials are incubated with 2 mg/mL of MTT solution (made up in growth media) in a humidified 37° C. incubator supplied with 10% CO2 for 2 hours. […] Spent MTT solution is read in a 96 well flat bottom plate at A540. […]

IL-1α = IL-1α secretion from TESTSKIN II tissue (ELISA); conditions: test materials neat, dexamethasone 100 μM
Procedure: as §1, §2
All supplies and handling equipment are sterilized, and techniques for maintaining sterility are used. Skin tissue is punched out using an 8 mm biopsy punch from the middle section and transferred to a well of a six-well plate containing transwell inserts and 1 mL of growth media. Tissues are transferred to a humidified 37° C. incubator supplied with 10% CO2 and incubated overnight.
Test materials to be used are dosed on a sterile dosing pad (10 μL/pad) and placed on top of tissue. Dosed tissues are returned to the incubator and incubated for a specified amount of time (e.g., 4 hours), after which the supernatants are replaced with fresh media. Collected supernatants are used for PGE2 and GM-CSF assays.
Assays are performed in triplicate, and the numbers shown correspond to averages of the triplicate treatments.
Tissues are pre-incubated with test materials for 4 hours prior to being stimulated by PMA or Histamine. Secreted IL-1α, PGE2 and GM-CSF are measured using the ELISA method.

Structure (SMILES) | induction of PGE2 secretion by stimulus, in words (PGE2) | toxicity to TESTSKIN II tissue, in words (TESTSKIN II) | IL-1α secretion (IL-1α; 0 Hr, average of triplicate ± SD) | IL-1α secretion (IL-1α; 8 Hr) | IL-1α secretion (IL-1α; 24 Hr)
CCCCCCCCCCCCCC(=O)O[C@@H]1[C@@H](C)[C@@]2(O)[C@@H](C=C(CO)C[C@]3(O)C(=O)C(C)=C[C@@H]23)[C@@H]2C(C)(C)[C@]12OC(C)=O [PMA, phorbol myristate acetate] | fails to induce PGE2 secretion above the background level | mildly toxic | – | – | –
C[C@@H]1C[C@H]2[C@@H]3CCC4=CC(=O)C=C[C@]4(C)[C@@]3(F)[C@@H](O)C[C@]2(C)[C@@]1(O)C(=O)CO [Dexamethasone, dexamethasone] | – | – | 22.00 ± 9.69 | 24.45 ± 9.47 | 25.42 ± 8.94
